No end group written: not given here.
Assays:
[1] = test system: Escherichia coli; details: compared to the starting fusion; cited from earlier work
[2] = test system: Bacillus subtilis; details: compared to the starting fusion; cited from earlier work
[3] = test system: E. coli B; test: Growth inhibition of E. coli B cultures in LB medium (optical density after 24 h); format: cell-based
Description: Bacterial growth was monitored by measuring the optical density after 24 h. […] For this, said carboxyl groups were activated with 1-ethyl-3-(3-dimethylaminopropyl)carbodiimide hydrochloride and N-hydroxy-sulfosuccinimide, and amidated by subsequent addition of ammonia.

## KWKLFKKIPKFLHLAKKF (P18 Peptide) [SEQ ID NO:6, cecropin A-magainin 2 fusion peptide development described by Shin et al. 1999]
[1]
  antibacterial activity with respect to Escherichia coli: not adversely affected
[2]
  antibacterial activity with respect to Bacillus subtilis: not adversely affected

## PGKWKLFKKIPKFLHLAKKFG (P18 Peptide) [antimicrobial peptide released by acidic cleavage from a recombinant repetitive precursor protein]
[3]; E. coli B in LB medium, starting optical density 0.1 at 600 nm, shaking at 37° C., 24 h
  peptide concentration for complete inhibition of growth (optical density at 600 nm after 24 h<0.15): ≥ 31 ppm

## amidated P18 peptide: P18 peptide (SEQ ID NO: 23) whose C-terminal carboxyl group is amidated (PGKWKLFKKIPKFLHLAKKFG-NH2)
[3]; C-terminal carboxyl group amidated (EDC / N-hydroxy-sulfosuccinimide, ammonia)
  antimicrobial activity after amidating the C-terminal carboxyl group, relative to non-amidated P18: improve the antimicrobial activity further
